{
  "source": "paper PMC3030572",
  "about": "“Antamanide, a Derivative of Amanita phalloides, Is a Novel Inhibitor of the Mitochondrial Permeability Transition Pore” (PLoS ONE, 2011)",
  "key": {"[1]": {"system": "mitochondrial permeability transition pore (PTP)", "format": "biochemical, mouse", "description": "A, chemical structure of AA. B, D, Ca^2+ retention capacity (CRC) either in phosphate (Pi) buffer (B) or in arsenate (Asi) buffer (D). Calcium Green-5N fluorescence is reported as arbitrary units on the y axis.\nMitochondria were isolated either from livers of C57BL/6 mice through sequential centrifugations, or from cells, as described. To obtain mitochondria, cells were disrupted with a glass-Teflon potter in a buffer composed by 250 mM sucrose, 10 mM Tris-HCl, 0.1 mM EGTA-Tris, pH 7.4. Nuclei and plasma membrane fractions were separated by a first mild centrifugation (700× g, 10 min), and mitochondria were then spinned down at a higher speed (7000× g, 10 min). All procedures were carried out at 0–4°C.\nPTP opening was detected as a fluorescence increase."}, "[2]": {"system": "mitochondrial permeability transition pore (PTP)", "conditions": "ref [30]; cited from earlier work", "excerpt": "AA is the cyclodecapeptide c([…] (Figure 1A). To evaluate its effect on the PTP, we performed Ca^2+ retention capacity (CRC) assays on isolated mouse liver mitochondria (MLM)."}, "[3]": {"system": "organic anion-transporting polypeptide family", "conditions": "also our unpublished data; ref [8]; cited from earlier work", "excerpt": "(§1) Antamanide (AA) is a monocyclic, homodetic decapeptide isolated from the poisonous mushroom Amanita phalloides. […] Little is known about the biochemical mechanisms underlying these diverse bioactivities. […] The CyP chaperone activity, i.e. the isomerization to the cis form of the peptidyl bonds preceding each proline, is involved in folding and association processes required for proteins to perform thei ..."}, "HeLa cells [4]": {"system": "HeLa cells", "format": "cell-based, human", "conditions": "TMRM; for induction of mitochondrial depolarization / percentage of cells with depolarized mitochondria: difference from untreated cells: 1 hour; for percentage of cells with depolarized mitochondria: difference from untreated cells: Student's t test, Figure 5B", "description": "Figure 5 Effect of AA on mitochondrial potential of HeLa cells. A, bar graphs report the ratio between the CRC detected in the presence (CRC) and absence (CRC0) of increasing concentrations of AA in mitochondria from HeLa cells. […] B,C cytofluorimetric analysis of mitochondrial depolarization. HeLa cells were incubated with the TMRM probe and treated for 1 hour with the reported concentrations of either clotrimazole (CTM) or TAT-HK peptide. An unrelated TAT-linked peptide (TAT-Ctr) is used as a negative control. […] Bar graphs in B display the percentage of cells with depolarized mitochondria (mean±SD, n = 4). […] Histograms in C report a representative experiment, where cells with polarized and depolarized mitochondria are indicated in red and grey, respectively.\n(§2) Flow cytometry recordings were performed as described, [51], [52]. Briefly, at the end of the incubation, cells were resuspended in 135 mM NaCl, 10 mM HEPES, 5 mM CaCl2 and incubated at 37°C in either TMRM (10 nM) to detect mitochondrial depolarization (reduced TMRM staining), or in FITC-conjugated Annexin-V and propidium iodide (PI, 1 µg/ml), to detect phosphatidylserine exposure on the cell surface (increased FITC-conjugated Annexin-V staining) and loss of plasma membrane integrity (PI permeability and staining). […] Samples were analyzed on a FACSCanto II flow cytometer (Becton Dickinson, San Diego, CA, USA). Data acquisition and analysis were performed using FACSDiva software."}, "HeLa cells [5]": {"system": "HeLa cells", "format": "cell-based, human", "conditions": "data not shown"}, "HeLa cells [6]": {"system": "HeLa cells", "format": "cell-based, human", "description": "A, cytofluorimetric analysis of cell death induction in HeLa cells treated for 1 hour with TAT-HK. […] TAT-Ctr was used as a negative control. Cells were double stained with Annexin V-FITC and propidium iodide (PI), to respectively evaluate apoptosis induction as phosphatidylserine exposure on the cell surface (increased Annexin V-FITC staining) and cell death as plasma membrane permeabilization (increased PI staining). We considered Annexin V^+ as early/intermediate apoptotic cells; PI^+ as necrotic cells; double stained as late apoptotic cells. Bar graphs display the percentage of each cell population (mean±SD, n = 4; double positive cells are added to both bars). […] B, histograms reporting a representative experiment, where viable cells are indicated in red, PI^+- and Annexin V^+-cells are indicated in grey and green, respectively.\nas §2"}, "immunosuppressant": {"system": "immunosuppressant", "design": "method as in PMID 1494502, PMID 8441706", "conditions": "ref [10], [11]; cited from earlier work", "excerpt": "as §1"}, "HCV/HIV": {"system": "HCV/HIV", "conditions": "ref [35]; cited from earlier work", "excerpt": "(§3) CyP-D is a promising pharmacological target. It is part of the CyP protein family, composed by ubiquitous and extremely conserved proteins located in different subcellular compartments, [35]."}, "lymphocyte activation": {"system": "lymphocyte activation", "conditions": "via CyP-A/CsA complex; ref [36]; cited from earlier work", "excerpt": "as §3"}, "[7]": {"system": "tumor necrosis; metastasis formation", "conditions": "ref [45]; cited from earlier work"}, "malignancies": {"system": "malignancies", "conditions": "ref [47]; cited from earlier work"}, "[8]": {"system": "multidrug resistance proteins", "conditions": "ref [50]; cited from earlier work"}, "HeLa cells [9]": {"system": "HeLa cells", "format": "cell-based, human", "conditions": "phalloidin 50 µg/ml, 1 hour, TMRM, Figure S1B"}, "[10]": {"system": "mitochondrial permeability transition pore (PTP)", "conditions": "ref [37]; cited from earlier work", "description": "Briefly, at the end of the incubation, cells were resuspended in 135 mM NaCl, 10 mM HEPES, 5 mM CaCl2 and incubated at 37°C in either TMRM (10 nM) to detect mitochondrial depolarization (reduced TMRM staining), or in FITC-conjugated Annexin-V and propidium iodide (PI, 1 µg/ml), to detect phosphatidylserine exposure on the cell surface (increased FITC-conjugated Annexin-V staining) and loss of plasma membrane integrity (PI permeability and staining)."}, "[11]": {"system": "mouse model of the disease", "conditions": "ref [38]; cited from earlier work", "excerpt": "(§4) CyP-D is a promising pharmacological target."}, "[12]": {"system": "muscle samples derived from patients affected by Ullrich muscular dystrophy", "conditions": "ref [37]; cited from earlier work", "excerpt": "as §4"}, "[13]": {"conditions": "30 min preincubation, then TAT-HK 1 hour"}},
  "note": "“Also recorded” adds a separate entry of the source. Like-named read-outs stand apart in the source and are kept apart here.",
  "data": [
    {"molecule": "COC1=C(OC)C(=O)C(C)=CC1=O", "note": "[Ub0, Ubiquinone 0, reference compound]", "values": [
      {"measurement": "CRC/CRC0: difference from CRC of untreated mitochondria", "setting": "[1]; AA at various concentrations, Figure 1C and D, mean±SD of at least 4 experiments, Student's t test", "result": "significant difference (Student's t test analysis; *: p<0.01)"},
      {"measurement": "PTP inhibition in arsenate", "setting": "[1]; arsenate (Asi) buffer, Figure 1B, D", "result": "inhibits the pore also in Asi buffer, albeit to a lesser extent"},
      {"measurement": "PTP inhibition when phosphate is substituted with arsenate", "setting": "[2]", "result": "the effect of CsA, but not of Ub0, is abolished"}
    ]},
    {"molecule": "C=CC[C@@H]1/C=C(\\C)C[C@H](C)C[C@H](OC)[C@H]2O[C@@](O)(C(=O)C(=O)N3CCCC[C@H]3C(=O)O[C@H](/C(C)=C/[C@@H]3CC[C@@H](O)[C@H](OC)C3)[C@H](C)[C@@H](O)CC1=O)[C@H](C)C[C@@H]2OC", "note": "[FK506]", "values": [
      {"measurement": "inhibition of cell uptake of phalloidin", "setting": "[3]", "result": "cell uptake of phalloidin was also inhibited"}
    ]},
    {"molecule": "Clc1ccccc1C(c1ccccc1)(c1ccccc1)n1ccnc1", "note": "[CTM, clotrimazole]", "values": [
      {"measurement": "induction of mitochondrial depolarization", "setting": "HeLa cells [4]", "result": "marked mitochondrial depolarization"},
      {"measurement": "percentage of cells with depolarized mitochondria: difference from untreated cells", "setting": "HeLa cells [4]; n = 4", "result": "significant difference (Student's t test analysis; #: p<0.01)"},
      {"measurement": "cell death induction by clotrimazole", "setting": "HeLa cells [5]; compared with TAT-HK", "result": "A similar degree of cell death was observed"}
    ]},
    {"molecule": "cyclosporin A [CsA]", "values": [
      {"measurement": "reversal of CTM-induced mitochondrial depolarization", "setting": "HeLa cells [4]; 30 min preincubation, then CTM 1 hour, n = 4", "result": "significantly decreased the percentage of cells with mitochondria depolarized by CTM (Student's t test analysis; *: p<0.01); also recorded: similarly reverted"},
      {"measurement": "reversal of TAT-HK-induced mitochondrial depolarization", "setting": "HeLa cells [4]; 30 min preincubation, then TAT-HK 1 hour, n = 4", "result": "similarly reverted"},
      {"measurement": "effect on TAT-HK-induced necrotic response", "setting": "HeLa cells [6]; [13]", "result": "virtually abolished the necrotic response"},
      {"measurement": "residual apoptosis after TAT-HK", "setting": "HeLa cells [6]; [13]", "result": "a small fraction of cells undergoing apoptosis was still detectable"},
      {"measurement": "protection from TAT-HK induced death", "setting": "HeLa cells [6]; 30 min preincubation, then TAT-HK 1 hour, n = 4, Student's t test *: p<0.01", "result": "significantly protected from TAT-HK induced death"},
      {"measurement": "inhibition of clotrimazole-induced cell death", "setting": "HeLa cells [5]; clotrimazole", "result": "inhibited the process"},
      {"measurement": "immunosuppressant activity", "setting": "immunosuppressant", "result": "act as immunosuppressants"},
      {"measurement": "prevention of HCV/HIV replication", "setting": "HCV/HIV", "result": "prevent HCV/HIV replication"},
      {"measurement": "inhibition of lymphocyte activation", "setting": "lymphocyte activation", "result": "inhibits lymphocyte activation"},
      {"measurement": "effect on tumor necrosis and metastasis", "setting": "[7]", "result": "induces tumor necrosis and abrogates metastasis formation"},
      {"measurement": "effect on progression of malignancies", "setting": "malignancies", "result": "can enhance the progression of certain malignancies"},
      {"measurement": "inhibition of multidrug resistance proteins", "setting": "[8]", "result": "inhibits multidrug resistance proteins"}
    ]},
    {"molecule": "CO[C@H]1C[C@@H]2CC[C@@H](C)[C@@](O)(O2)C(=O)C(=O)N2CCCC[C@H]2C(=O)O[C@H]([C@H](C)C[C@@H]2CC[C@@H](O)[C@H](OC)C2)CC(=O)[C@H](C)/C=C(\\C)[C@@H](O)[C@@H](OC)C(=O)[C@H](C)C[C@H](C)/C=C/C=C/C=C/1C", "note": "[rapamycin]", "values": [
      {"measurement": "inhibition of cell uptake of phalloidin", "setting": "[3]", "result": "cell uptake of phalloidin was also inhibited"}
    ]},
    {"molecule": "N#CC(C#N)=NNc1ccc(OC(F)(F)F)cc1", "note": "[FCCP]", "values": [
      {"measurement": "mitochondrial depolarization (positive control)", "setting": "HeLa cells [4]; FCCP 4 µM", "result": "full mitochondrial depolarization"}
    ]},
    {"molecule": "phalloidin [reference compound]", "values": [
      {"measurement": "activity on the PTP", "setting": "[1]; phalloidin 50 µg/ml", "result": "inactive on the PTP"},
      {"measurement": "effect on mitochondrial Ca2+ retention capacity", "setting": "[1]; phalloidin 50 µg/ml, MLM, 3 experiments, Figure S1A", "result": "could not detect any effect"},
      {"measurement": "effect on mitochondrial potential", "setting": "HeLa cells [9]", "result": "could not detect any effect"}
    ]},
    {"molecule": "MIASHLLAYFFTELNbA-GYGRKKRRQRRRG [TAT-HK, HKII-displacing peptide]", "values": [
      {"measurement": "induction of mitochondrial depolarization", "setting": "HeLa cells [4]", "result": "marked mitochondrial depolarization"},
      {"measurement": "percentage of cells with depolarized mitochondria: difference from untreated cells", "setting": "HeLa cells [4]; n = 4", "result": "significant difference (Student's t test analysis; #: p<0.01)"},
      {"measurement": "cell death induction", "setting": "HeLa cells [6]; TAT-HK 1 hour, Annexin V / propidium iodide", "result": "fast and dramatic cell death, mainly necrosis"},
      {"measurement": "number of PI+ cells: difference from untreated cells", "setting": "HeLa cells [6]; TAT-HK 1 hour, n = 4, Student's t test #: p<0.01", "result": "significantly increased"}
    ]},
    {"molecule": "cyclosporin H", "values": [
      {"measurement": "activity on the PTP", "setting": "[10]", "result": "inactive on the PTP"}
    ]},
    {"molecule": "Debio-025", "values": [
      {"measurement": "mitochondrial function and apoptotic rate", "setting": "[11]", "result": "normalizes mitochondrial function and apoptotic rate"},
      {"measurement": "mitochondrial function and apoptotic rate", "setting": "[12]", "result": "normalizes mitochondrial function and apoptotic rate"}
    ]}
  ]
}
